Results reported in BindingDB's records for doi:10.1016/s0969-8051(99)00080-3 (Emory University, 2000).

Tests used:
[1] = biological target: Sodium-dependent dopamine transporter (Homo sapiens, UniProt Q01959)
[2] = biological target: Sodium-dependent noradrenaline transporter (Homo sapiens, UniProt P23975)
Sodium-dependent noradrenaline transporter, sequence (P23975 whole entry): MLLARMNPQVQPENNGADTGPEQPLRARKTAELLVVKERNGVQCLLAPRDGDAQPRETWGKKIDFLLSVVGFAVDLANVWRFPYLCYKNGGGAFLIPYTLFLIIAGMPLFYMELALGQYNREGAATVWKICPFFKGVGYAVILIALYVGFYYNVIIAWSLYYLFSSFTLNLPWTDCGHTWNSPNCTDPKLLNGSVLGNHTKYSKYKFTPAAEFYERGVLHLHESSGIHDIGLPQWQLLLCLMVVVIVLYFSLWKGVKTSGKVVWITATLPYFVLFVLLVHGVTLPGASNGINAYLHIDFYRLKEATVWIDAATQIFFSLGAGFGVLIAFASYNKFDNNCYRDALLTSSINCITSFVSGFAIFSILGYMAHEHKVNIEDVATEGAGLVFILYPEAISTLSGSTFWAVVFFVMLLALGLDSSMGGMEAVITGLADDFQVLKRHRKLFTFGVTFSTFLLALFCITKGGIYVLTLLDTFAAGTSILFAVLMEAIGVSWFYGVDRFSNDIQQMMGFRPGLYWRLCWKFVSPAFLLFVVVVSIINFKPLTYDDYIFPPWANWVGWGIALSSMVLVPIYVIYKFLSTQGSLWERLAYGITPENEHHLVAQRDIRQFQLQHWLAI

Sodium-dependent dopamine transporter, sequence (Q01959 whole entry): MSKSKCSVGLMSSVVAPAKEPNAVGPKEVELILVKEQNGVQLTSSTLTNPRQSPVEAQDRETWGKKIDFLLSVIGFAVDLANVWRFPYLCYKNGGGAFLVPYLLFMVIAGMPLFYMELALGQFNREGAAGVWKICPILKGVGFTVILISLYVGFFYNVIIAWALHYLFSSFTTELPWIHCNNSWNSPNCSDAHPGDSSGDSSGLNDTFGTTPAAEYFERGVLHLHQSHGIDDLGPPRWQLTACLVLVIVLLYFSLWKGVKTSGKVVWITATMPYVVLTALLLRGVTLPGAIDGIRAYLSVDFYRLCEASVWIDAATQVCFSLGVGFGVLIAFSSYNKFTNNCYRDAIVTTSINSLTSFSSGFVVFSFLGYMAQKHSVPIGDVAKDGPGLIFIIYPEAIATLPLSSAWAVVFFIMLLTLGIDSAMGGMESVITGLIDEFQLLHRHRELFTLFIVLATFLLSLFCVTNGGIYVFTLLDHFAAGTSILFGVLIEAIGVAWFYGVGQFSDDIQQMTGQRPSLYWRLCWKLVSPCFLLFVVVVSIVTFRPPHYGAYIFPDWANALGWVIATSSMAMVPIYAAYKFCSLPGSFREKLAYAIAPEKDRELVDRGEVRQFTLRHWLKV

In the case of `COC(=O)C1C(c2ccc(Cl)cc2)CC2CCC1N2CCF` (configuration not stated) [MOLI000038], the Ki [1] is reported as 1.53 nM and the Ki [2] is reported as 240 nM.
